Results as given in patent US20200370056A1, “CELL LINES AND METHODS FOR INCREASED PROTEIN PRODUCTION” (ASTRAZENECA AB, priority 2017, published 2020).

Legend:
[1] = system: HEK293 CriptoFC 1B8 cell line; test: Cripto-FC expression by flow cytometry, concentration response; assay type: cell-based; details: Homo sapiens, Cripto-FC model protein, 10 point concentration response, top concentration 6 μM, read-out: pAC50 for Improved Protein Expression, Cripto-FC (converted)
Method: Human Embryonic Kidney (HEK) cells, Expi293F cell line, were co-transfected using Expifectamine with vectors for targeted integration of one of three model proteins, Cripto-Fc, PLAP and hGFRα2, and a vector expressing Zinc Finger Nucelases that target the AAVS1 locus in the genome. As shown below in Table 3, Cripto-Fc served as a high volume expressing protein, PLAP a medium expressing protein, and hGFRα2 as a low expressing protein. After 48 hours, selection with puromycin blasticidin were applied to enrich for cells with the vectors integrated. After 14 days, cells were sorted by flow cytometry as single cells in 96 well plates. After single colonies were isolated the cells were expanded and analyzed to determine the gene copy number of the recombinant target gene in each clone. […]
To confirm hits from the primary screen, the available positive hits were subjected to the counter screening without addition of antibody-conjugates to remove flourescent compounds. In parallel, a 10 point concentration response curve with a top concentration of 6 μM for each of the compounds was determined. Only compounds that lacked inherent fluorescence, and increased protein expression with at least 30% in a dose-dependent mariner were counted as confirmed hits. […]

HEK293 PLAP cell line = test: PLAP expression by secreted enzymatic activity (p-Nitrophenyl phosphate, 405 nm); assay type: cell-based; details: Homo sapiens, PLAP model protein, enzymatic activity readout, read-out: pAC50 for Improved Protein Expression, PLAP (converted)
Method: An additional study was performed on different cells expressing GRFα2 and PLAP. The same assay performed on HEk293 CriptoFC 1B8 was performed on a cell line containing a single gene copy of GFRA2. […] The activity measurement for PLAP is based on the degradation of p-Nitrophenyl phosphate to p-Nitrophenyl which can be followed as an increase in absorbance at 405 nm.

ULK1 = target: T1, ULK1 (Homo sapiens, UniProt O75385); details: cited from earlier work
T1 sequence (O75385 1-1050): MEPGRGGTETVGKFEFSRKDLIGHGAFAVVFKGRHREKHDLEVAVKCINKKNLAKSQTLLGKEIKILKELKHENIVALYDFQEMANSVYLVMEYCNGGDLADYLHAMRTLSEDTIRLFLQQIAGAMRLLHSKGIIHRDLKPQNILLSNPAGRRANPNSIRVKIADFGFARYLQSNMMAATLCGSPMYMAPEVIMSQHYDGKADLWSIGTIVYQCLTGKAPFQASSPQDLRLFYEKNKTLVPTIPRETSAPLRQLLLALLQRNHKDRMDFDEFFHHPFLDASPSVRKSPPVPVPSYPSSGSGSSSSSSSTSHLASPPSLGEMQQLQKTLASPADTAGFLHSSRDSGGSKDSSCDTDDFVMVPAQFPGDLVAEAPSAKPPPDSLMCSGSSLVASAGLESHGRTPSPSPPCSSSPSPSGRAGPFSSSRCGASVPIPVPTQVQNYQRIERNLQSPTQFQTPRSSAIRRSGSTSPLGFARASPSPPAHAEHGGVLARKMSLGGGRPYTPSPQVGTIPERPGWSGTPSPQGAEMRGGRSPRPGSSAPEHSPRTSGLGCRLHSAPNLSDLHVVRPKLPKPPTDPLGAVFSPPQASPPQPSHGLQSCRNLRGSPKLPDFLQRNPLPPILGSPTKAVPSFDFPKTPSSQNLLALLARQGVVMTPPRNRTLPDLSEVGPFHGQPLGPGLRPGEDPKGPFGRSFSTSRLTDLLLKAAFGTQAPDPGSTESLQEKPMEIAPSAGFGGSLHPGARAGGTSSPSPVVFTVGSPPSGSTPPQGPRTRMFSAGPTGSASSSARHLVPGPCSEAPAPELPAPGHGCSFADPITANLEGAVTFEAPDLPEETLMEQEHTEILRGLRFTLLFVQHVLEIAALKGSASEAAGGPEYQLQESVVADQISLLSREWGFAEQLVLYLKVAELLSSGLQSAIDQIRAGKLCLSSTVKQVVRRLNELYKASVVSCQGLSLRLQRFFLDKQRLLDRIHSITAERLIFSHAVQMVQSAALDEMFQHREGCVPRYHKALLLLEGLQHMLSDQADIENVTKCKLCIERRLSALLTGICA

In the case of `CN1CCc2cc(Nc3ncc(C4CC4)c(NCCCNC(=O)C4CCC4)n3)ccc2C1` [MRT68921], the AC50 [1] is given as 79.4 nM, the AC50 (HEK293 PLAP cell line) is given as 60.3 nM and the IC50 (ULK1) is given as about 2.9 nM.
